Tests used:
Candida albicans FP633 = assay: Antimicrobial activity, serial broth dilution method (96-well microtiter plate); assay type: cell-based; settings: MEM, 1×10^5 cfu/ml, 37° C. for 24 hours, microscopic observation
Protocol: (§1) Test (Antimicrobial activity):
(§2) Test Compound The object compound of Example 1
(§3) Antimicrobial activity of the object compound of Example 1 was determined by a serial broth dilution method using 96-well microtiter plate in 100 μl of MEM (Eagle's minimum essential medium) for Candida albicans and in 100 μl of yeast nitrogen base dextrose medium for both Asperaillus fumigatus and Cryptococcus neoformans. The inoculum was adjusted to 1×10^5 colony forming units/ml. Candida albicans and Asperaillus fumigatus were cultured at 37° C. for 24 hours and Cryptococcus neoformans was cultured at 37° C. for 48 hours in 5% CO2 incubator. After incubation, the growth inhibition of microorganisms in each well was determined by microscopic observation. The results were shown as MEC (minimum effective concentration: μg/ml) value (Table 2).

[1] = test system: Aspergillus fumigatus FP1305; assay: as above; assay type: cell-based; settings: yeast nitrogen base dextrose medium, 1×10^5 cfu/ml, 37° C. for 24 hours, microscopic observation
Protocol: as §1, §2, §3

[2] = Solubility (physico-chemical properties)

| SMILES | melting point | MEC (minimum effective concentration) (Candida albicans FP633) [µg/mL] | MEC (minimum effective concentration) [1] [µg/mL] | Solubility ([2]; acetone) | Solubility ([2]; chloroform) | Solubility ([2]; ethyl acetate) | Solubility ([2]; methanol) | Solubility ([2]; water) |
| --- | --- | --- | --- | --- | --- | --- | --- | --- |
| CC(O)C1NC(=O)C(N)CC(O)C(O)NC(=O)C2C(O)CCN2C(=O)C(C(O)CC(N)=O)NC(=O)C(C(O)C(O)c2ccc(O)c(OS(=O)(=O)O)c2)NC(=O)C2CC(O)CN2C1=O (stereo not drawn) [Example 2] | 150 to 155 °C | – | – | – | – | – | – | – |
| CCCCCCCCCCCCCCCC(=O)NC1CC(O)C(O)NC(=O)C2C(O)CCN2C(=O)C(C(O)CC(N)=O)NC(=O)C(C(O)C(O)c2ccc(O)c(OS(=O)(=O)[O-])c2)NC(=O)C2CC(O)CN2C(=O)C(C(C)O)NC1=O.[Na+] (stereo not drawn) [Example 1] | 165 to 170 °C (dec.) | 0.04 | 0.08 | slightly soluble | insoluble | slightly soluble | soluble | soluble |
